Data as given in patent US20090325959A1 (priority 2008, published 2009).
Like-named read-outs stand apart in the source and are kept apart here.

Assays:
[1] = biological target: T1, ROCK2 (Homo sapiens, UniProt O75116); assay: Rho kinase inhibition assay (IMAP fluorescence polarization), ROCK2; assay type: biochemical;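 also: kinase reaction started with 10 µM ATP and run 60 min at room temperature, then phosphorylated substrate captured on IMAP beads for 30 min and fluorescence polarization read in mP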
T1 construct: purchased Upstate/Chemicon 14-451
Procedure: (§1) Following the pre-incubation, 10 μM ATP was added to initiate the reaction. After 60 minutes at room temperature, Molecular Devices IMAP™ binding solution was added to bind phosphorylated substrate. After 30 minutes of incubation in the presence of the IMAP™ beads, the fluorescence polarization was read and the ratio was reported as mP. IC50 values for compounds and EC50 values for ATP were calculated using the Prism software from Graphpad.

[2] = biological target: T2, ROCK1 (Homo sapiens, UniProt Q13464); assay: Rho kinase inhibition assay (IMAP fluorescence polarization), ROCK1; assay type: biochemical;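 also: kinase reaction run 60 min at room temperature, then phosphorylated substrate captured on IMAP beads for 30 min, with fluorescence polarization read in mP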
T2 construct: purchased Upstate/Chemicon 14-601
Procedure: as §1

[3] = 10 μM ATP, read-out: ROCK2 Ki, Avg

T1 sequence (O75116 11-552 limits assumed): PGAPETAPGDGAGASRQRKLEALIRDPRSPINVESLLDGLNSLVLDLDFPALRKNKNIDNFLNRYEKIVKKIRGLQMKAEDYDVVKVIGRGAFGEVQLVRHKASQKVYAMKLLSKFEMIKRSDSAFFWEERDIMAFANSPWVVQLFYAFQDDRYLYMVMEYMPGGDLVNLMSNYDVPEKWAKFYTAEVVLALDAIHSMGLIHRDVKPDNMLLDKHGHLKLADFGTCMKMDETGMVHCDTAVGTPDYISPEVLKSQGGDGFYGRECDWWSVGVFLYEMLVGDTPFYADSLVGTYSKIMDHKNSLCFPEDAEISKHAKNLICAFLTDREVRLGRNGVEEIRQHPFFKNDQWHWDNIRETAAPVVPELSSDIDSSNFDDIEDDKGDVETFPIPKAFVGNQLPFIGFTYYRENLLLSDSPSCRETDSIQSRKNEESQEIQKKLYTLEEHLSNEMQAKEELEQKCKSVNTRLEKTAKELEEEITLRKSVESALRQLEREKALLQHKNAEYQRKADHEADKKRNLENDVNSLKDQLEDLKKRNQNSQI
T2 sequence (Q13464 17-535 limits assumed): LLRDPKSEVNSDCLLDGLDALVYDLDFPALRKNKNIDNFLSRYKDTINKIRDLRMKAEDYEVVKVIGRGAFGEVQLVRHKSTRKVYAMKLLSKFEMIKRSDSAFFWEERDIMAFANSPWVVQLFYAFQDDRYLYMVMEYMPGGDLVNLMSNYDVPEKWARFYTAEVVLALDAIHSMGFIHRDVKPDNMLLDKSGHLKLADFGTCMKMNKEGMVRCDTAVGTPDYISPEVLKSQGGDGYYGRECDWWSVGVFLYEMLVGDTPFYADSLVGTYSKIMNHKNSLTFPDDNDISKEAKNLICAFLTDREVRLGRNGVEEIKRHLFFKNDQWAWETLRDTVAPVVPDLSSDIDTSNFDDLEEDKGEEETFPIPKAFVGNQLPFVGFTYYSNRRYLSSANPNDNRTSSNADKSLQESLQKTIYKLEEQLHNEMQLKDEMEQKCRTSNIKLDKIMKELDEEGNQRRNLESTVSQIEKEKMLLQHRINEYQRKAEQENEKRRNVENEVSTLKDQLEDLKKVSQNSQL

Row | Structure (SMILES) | Ki [1, 3] [nM] | Ki ([1]; average Ki, read-out: ROCK2 Ki) [nM] | Ki ([2]; Avg, 10 μM ATP) [nM] | Ki ([2]; average Ki) [nM]
1 | O=S(=O)(Nc1cccc(CN2CCC[C@H](Nc3ccc4[nH]ncc4c3)C2)c1)N1CCCCC1 [Compound 1.270, (S)-N-(3-((3-(1H-indazol-5-ylamino)piperidin-1-yl)methyl)phenyl)piperidine-1-sulfonamide] | 9.9 | 9.9 | 130 | 130
2 | c1ccc(Cn2cc(CN3CCC[C@@H](Nc4ccc5[nH]ncc5c4)C3)c3ccccc32)cc1 [Compound 1.271, (R)-N-(11-((1-benzyl-1H-indol-3-yl)methyl)piperidin-3-yl)-1H-indazol-5-amine] | 77.7 | – | 332 | –
3 | CS(=O)(=O)N1CCCc2cc(CN3CCC[C@H](Nc4ccc5[nH]ncc5c4)C3)ccc21 [Compound 1.272, (S)-N-(1-((1-(methylsulfonyl)-1,2,3,4-tetrahydroquinolin-6-yl)methyl)piperidin-3-yl)-1H-indazol-5-amine] | 194 | – | 1820 | –
4 | OCCn1cc(CN2CCC[C@@H](Nc3ccc4[nH]ncc4c3)C2)c2ccccc21 [Compound 1.273, (R)-2-(3-((3-(1H-indazol-5-ylamino)piperidin-1-yl)methyl)-1H-indol-1-yl)ethanol] | 8.2 | 8.2 | 31.3 | 31.3
5 | Cc1c(CN2CCC[C@H](Nc3ccc4[nH]ncc4c3)C2)cccc1NS(C)(=O)=O [Compound 1.274, (S)-N-(3-((3-(1H-indazol-5-ylamino)piperidin-1-yl)methyl)-2-methylphenyl)methanesulfonamide] | 10.7 | – | 223 | –
6 | Cc1ccc(CN2CC[C@@H](Nc3ccc4[nH]ncc4c3)C2)cc1OCCO [Compound 1.276] | 12.3 | – | 64.2 | –
7 | Cc1nc(CN2CCC[C@H](Nc3ccc4[nH]ncc4c3)C2)c(C)o1 [Compound 1.279, (S)-N-(1-((2,5-dimethyloxazol-4-yl)methyl)piperidin-3-yl)-1H-indazol-5-amine] | 34.2 | – | 456 | –
8 | COc1c(CN2CCC[C@H](Nc3ccc4[nH]ncc4c3)C2)cccc1NS(C)(=O)=O [Compound 1.280, (S)-N-(3-((3-(1H-indazol-5-ylamino)piperidin-1-yl)methyl)-2-methoxyphenyl)methanesulfonamide] | 38 | – | 746 | –
9 | Cc1ccc(CN2CCC[C@@H](Nc3ccc4[nH]ncc4c3)C2)cc1OCC(N)=O [Compound 1.281] | 7.4 | 7.4 | 71.8 | 71.8
10 | N#Cc1cccc(CN2CCC(Nc3cccc4cnccc34)C2)c1 (stereo not drawn) [Compound 2.007, 3-((3-(isoquinolin-5-ylamino)pyrrolidin-1-yl)methyl)benzonitrile] | 179 | – | 390 | –
11 | c1cc(CN2CC[C@@H](Nc3cccc4cnccc34)C2)cc(C2CC2)c1 [Compound 2.020, (R)-N-(1-(3-cyclopropylbenzyl)pyrrolidin-3-yl)isoquinolin-5-amine] | 36.5 | – | 101 | –
12 | CS(=O)(=O)Nc1cccc(CN2CCC[C@H](Nc3cccc4cnccc34)C2)c1 [Compound 2.037, (S)-N-(3-((3-(isoquinolin-5-ylamino)piperidin-1-yl)methyl)phenyl)methanesulfonamide] | 182 | – | 921 | –
13 | NC(=O)COc1cccc(CN2CC[C@@H](Nc3cccc4cnccc34)C2)c1 [Compound 2.040, (R)-2-(3-((3-(isoquinolin-5-ylamino)pyrrolidin-1-yl)methyl)phenoxy)acetamide] | 25.4 | – | 59.6 | –
14 | O=C(COc1cccc(CN2CC[C@@H](Nc3cccc4cnccc34)C2)c1)N1CCOCC1 [Compound 2.043, (R)-2-(3-((3-(isoquinolin-5-ylamino)pyrrolidin-1-yl)methyl)phenoxy)-1-morpholinoethanone] | 21.5 | – | 49.4 | –
15 | O=C(O)COc1cccc(CN2CC[C@@H](Nc3cccc4cnccc34)C2)c1 [Compound 2.044, (R)-2-(3-((3-(isoquinolin-5-ylamino)pyrrolidin-1-yl)methyl)phenoxy)acetic acid] | 24.1 | – | 81.4 | –
16 | Clc1ccc(CN2CC[C@@H](Nc3cccc4cnccc34)C2)cc1Cl [Compound 2.048, (R)-N-(1-(3,4-dichlorobenzyl)pyrrolidin-3-yl)isoquinolin-5-amine] | 34.6 | – | 71.5 | –
17 | FC(F)(F)c1cccc(CN2CC[C@@H](Nc3cccc4cnccc34)C2)c1 [Compound 2.049, (R)-N-(1-(3-(trifluoromethyl)benzyl)pyrrolidin-3-yl)isoquinolin-5-amlne] | 48 | – | 113 | –
18 | c1ccc(CN2CCC[C@H](Nc3cccc4cnccc34)C2)cc1 [Compound 2.050, (S)-N-(1-benzylpiperidin-3-yl)isoquinolin-5-amine] | 251 | – | 368 | –
19 | CSc1ccc(CN2CCC[C@H](Nc3cccc4cnccc34)C2)cc1 [Compound 2.051, (S)-N-(1-(4-(methylthio)benzyl)piperidin-3-yl)isoquinolin-5-amine] | 1180 | – | 1440 | –
20 | COc1ccc(CN2CCC[C@H](Nc3cccc4cnccc34)C2)cc1 [Compound 2.053, (S)-N-(1-(4-methoxybenzyl)piperidin-3-yl)isoquinolin-5-amine] | 182 | – | 952 | –
21 | c1cc(N[C@@H]2CCN(Cc3ccc4c(c3)OCCO4)C2)c2ccncc2c1 [Compound 2.056, (R)-N-(1-((2,3-dihydrobenzo[b][1,4]dioxin-6-yl)methyl)pyrrolidin-3-yl)isoquinolin-5-amine] | 48.7 | – | 107 | –
22 | Fc1ccc(CN2CC[C@@H](Nc3cccc4cnccc34)C2)cc1F [Compound 2.062, (R)-N-(1-(3,4-difluorobenzyl)pyrrolidin-3-yl)isoquinolin-5-amine] | 30.5 | – | 63.4 | –
23 | CC(=O)NCc1cccc(CN2CC[C@@H](Nc3cccc4cnccc34)C2)c1 [Compound 2.063, (R)-N-(3-((3-(isoquinolin-5-ylamino)pyrrolidin-1-yl)methyl)benzyl)acetamide] | 73.9 | – | 206 | –
24 | COc1ccc(CN2CC[C@@H](Nc3cccc4cnccc34)C2)cc1OCCO [Compound 2.067, (R)-2-(5-((3-(isoquinolin-5-ylamino)pyrrolidin-1-yl)methyl)-2-methoxyphenoxy)ethanol] | 4.2 | 4.2 | 19.6 | 19.6
25 | OCCOc1cc(CN2CC[C@@H](Nc3cccc4cnccc34)C2)ccc1F [Compound 2.068, (R)-2-(2-fluoro-5-((3-(isoquinolin-5-ylamino)pyrrolidin-1-yl)methyl)phenoxy)ethanol] | 5.8 | 5.8 | 8 | 8
26 | O=S(=O)(Nc1cccc(CN2CC[C@@H](Nc3cccc4cnccc34)C2)c1)N1CCCCC1 [Compound 2.069, (R)-N-(3-((3-(isoquinolin-5-ylamino)pyrrolidin-1-yl)methyl)phenyl)piperidine-1-sulfonamide] | 2.4 | 2.4 | 16.7 | 16.7
27 | CS(=O)(=O)N1CCCc2cc(CN3CC[C@@H](Nc4cccc5cnccc45)C3)ccc21 [Compound 2.070, (R)-N-(1-((1-(methylsulfonyl)-1,2,3,4-tetrahydroquinolin-6-yl)methyl)pyrrolidin-3-yl)isoquinolin-5-amine] | 48.4 | – | 286 | –
